The record followed here is publication PMC6722685, “A Novel Marine Natural Product Derived Pyrroloiminoquinone with Potent Activity against Skin Cancer Cells” (Marine Drugs, 2019).

In experiment [1] the test system is SCC13 cells. Description: MTT assay for cell viability, SCC13 cells. The note with it: for IC50 / IC90: Homo sapiens, SCC-13, MTT, 24 h treatment, mean ± SD, n = 4; for IC50: read-out: SSC13 Cells IC50 ± SD; for IC90: read-out: SSC13 Cells IC90 ± SD. The format is cell-based, human. The protocol:
(§1) We first investigated the dose-dependent effects of all five compounds on the cell viability of human skin cancer cell line, SCC13 as well as an immortalized human skin keratinocyte cell line, HaCaT through MTT assay. […] IC50 and IC90 values for these compounds against these two cell lines were calculated (Table 1). There were statistically significant differences between these two values with p < 0.05.
(§2) All cell lines were seeded on a 96-well cell culture plate at 2 × 10^5 cells per well. After 24 h, the cells were treated with increasing doses of the compounds (0, 0.0625 μM, 0.125 μM, 0.25 μM, 0.5 μM, 1.0 μM). After incubation for 24 h, the medium was removed and 100 μL of MTT solution (500 µg/mL) in PBS was added and kept for 4 h at 37 °C. The formazan crystals thus formed were dissolved in DMSO and the optical density (OD) was measured at 570 nm using a microplate reader (BioTek Synergy H1 Plate Reader, Winooski, VT, USA).
Background: Tetrazolium dyes change colour on reduction, which living cells bring about.

For another experiment, the system named is HaCaT cells. The experiment in a line: MTT assay for cell viability, HaCaT cells. The format is cell-based. The note with it: 24 h treatment, normal human keratinocytes, mean ± SD, n = 4. The protocol:
as §1, §2

The test system of experiment [2] is SCC13 cells. Description: Wound healing (cell migration) assay. The format is cell-based, human. The settings on record: 24 h, control group 93.37 ± 3.35. As for the experimental part: Figure 4 Effect of C278 on migration and invasion ability of the SCC13 cells. (A) SCC13 cells were allowed to proliferate in a 24-well plate until reaching confluency. A scratch was made on the plate using a pipette tip. The unattached cells were washed off. The cells were then treated with either 0.1% DMSO or two doses of C278 (0.5 µM and 1.0 µM) and incubated for 24 h. The images were captured at the time of drug treatment and after 24 h of incubation through a light microscope. (Scale bar: 200 µM). (B) Percent wound closure was measured using Image J software and plotted in bar graphs. Results are combined from two independent experiments and presented as mean ± SD; n = 4. (C) SCC13 cells were seeded in the invasion chambers and incubated for 4 h. Now the cells were treated either with 0.1% DMSO or two doses of C278 (0.5 µM and 1.0 µM) for 24 h. The cells from the upper surface of the membrane were removed with cotton swabs. The invaded cells, which were in the lower surface of the membrane, were stained with crystal violet. Images of the invaded cells were captured using a light microscope. (D) The average number of cells invaded was counted in each group and plotted in bar graphs. […]
SCC13 cells were seeded on 24-well cell culture plate at a density of 2 × 10^5 cells/well and cultured until cells were confluent. […] Percent change in wound area was measured by Image J software.

Experiment [3] concerns SCC13 cells. The experiment in a line: Cell invasion (trans-well, Matrigel) assay. The format is cell-based, human. The note with it: 24 h, control group 56.50 ± 4.95%. The protocol: Figure 4 Effect of C278 on migration and invasion ability of the SCC13 cells. (A) SCC13 cells were allowed to proliferate in a 24-well plate until reaching confluency. A scratch was made on the plate using a pipette tip. The unattached cells were washed off. The cells were then treated with either 0.1% DMSO or two doses of C278 (0.5 µM and 1.0 µM) and incubated for 24 h. The images were captured at the time of drug treatment and after 24 h of incubation through a light microscope. (Scale bar: 200 µM). (B) Percent wound closure was measured using Image J software and plotted in bar graphs. Results are combined from two independent experiments and presented as mean ± SD; n = 4. (C) SCC13 cells were seeded in the invasion chambers and incubated for 4 h. Now the cells were treated either with 0.1% DMSO or two doses of C278 (0.5 µM and 1.0 µM) for 24 h. The cells from the upper surface of the membrane were removed with cotton swabs. The invaded cells, which were in the lower surface of the membrane, were stained with crystal violet. Images of the invaded cells were captured using a light microscope. (D) The average number of cells invaded was counted in each group and plotted in bar graphs. Results are presented as mean ± SD; n = 4. * p < 0.01, ** p < 0.001, *** p < 0.0001. […]

The subject of experiment [4] is proliferating cell nuclear antigen (PCNA). Description: Western blot, PCNA expression in SCC13 cells. The format is cell-based, human. The note with it: 24 h, dose-dependent. The protocol:
Figure 3 Effects of C278 on the viability of SCC13 and HaCaT cells (A) SCC13 cells were treated with increasing concentrations of C278 at 24 h, and the percentage cell viability was estimated. Results are combined from two independent experiments and are presented as mean ± SD; n = 4. (B) HaCaT cells were treated with increasing concentrations of C278 at 24 h, and the percentage cell viability was estimated. Results are combined from two independent experiments and are presented as mean ± SD; n = 4. (C) Expression of PCNA was measured through western blot. The expression of this protein was normalized using β-Actin as a loading control. Figures are representatives of 2 independent experiments. (D) Densiometric analysis of bands was performed and the bar graphs expressing arbitrary units are presented. Error bar represents mean ± SD, n = 4. * p < 0.01, ** p < 0.001, *** p < 0.0001.
(§3) SCC13 cells (1–2 × 10^6) cultured in 6-well culture plate were treated with different concentrations of C278 for 24 h. […] Membranes were then washed three times with wash buffer (TBS containing 0.5% Tween), and then incubated with horseradish peroxidase (HRP)-conjugated secondary Ab and detected by enhanced chemiluminescence (ECL) detection system according to the manufacturer’s instructions.
In general terms: In western blotting, separated proteins are transferred to a membrane and probed.

For another experiment, the system named is Bcl-2. Description: Western blot, Bcl-2 expression in SCC13 cells. The format is cell-based, human. The note with it: SCC13 cells, 0.25, 0.5 and 1 µM, 24 h. The protocol:
(§4) Figure 5 Effect of C278 on apoptotic and autophagy related proteins in SCC13 cells. SCC13 cells were treated with 0.1% DMSO and 0.25, 0.5 and 1 µM of C278 for 24 h. The cells were then lysed in cell lysis buffer and protein was estimated. Western blot was performed to estimate the level of expression for human Bcl2, Cleaved-PARP and Beclin-1. The expression of these proteins was normalized using β-Actin as a loading control. Figures are representatives of 2 independent experiments. Bands were analyzed densiometrically and bar graphs expressing arbitrary units are presented adjacent to the western blot. Error bar represents mean ± SD, n = 4. * p < 0.01. ** p < 0.001.
as §3, with “h. Cells were then lysed in cell lysis buffer containing protease inhibitor cocktail and the protein concentrations in the cleared supernatants were estimated using the bicinchoninic acid (BCA) protein assay. The cell lysates were resolved by 10% SDS-PAGE and transferred to nitrocellulose membrane (BioRad, Hercules, CA, USA).” for “h.”

For a further experiment, the system named is cleaved-PARP. Description: Western blot, cleaved-PARP in SCC13 cells. The format is cell-based, human. The note with it: SCC13 cells, 0.25, 0.5 and 1 µM, 24 h. As for the experimental part: as §4
as §3, with “h. Cells were then lysed in cell lysis buffer containing protease inhibitor cocktail and the protein concentrations in the cleared supernatants were estimated using the bicinchoninic acid (BCA) protein assay. The cell lysates were resolved by 10% SDS-PAGE and transferred to nitrocellulose membrane (BioRad, Hercules, CA, USA).” for “h.”

The next experiment concerns beclin-1. The experiment in a line: Western blot, beclin-1 expression in SCC13 cells. The format is cell-based, human. The settings on record: SCC13 cells, 0.25, 0.5 and 1 µM, 24 h. The protocol: as §4
as §3, with “h. Cells were then lysed in cell lysis buffer containing protease inhibitor cocktail and the protein concentrations in the cleared supernatants were estimated using the bicinchoninic acid (BCA) protein assay. The cell lysates were resolved by 10% SDS-PAGE and transferred to nitrocellulose membrane (BioRad, Hercules, CA, USA).” for “h.”

Each structure is given as a SMILES string.

On to `Cc1ccc(S(=O)(=O)n2cc3c4c2C(=O)C(NCc2ccco2)=CC4=NCC3)cc1` [Compound C45], for which, in the experiment with SCC13 cells [1], the IC50 (commonly the concentration needed to halve the response being measured) is 2580 ± 230 nM and the IC90 (usually the concentration at which the effect reaches the 90% level) was 4650 ± 420 nM. Further, in the experiment with HaCaT cells, the IC50 was determined as 5240 ± 80 nM and the 90% effect concentration (IC90) was found to be 9430 ± 150 nM.

Turning to `Cc1ccc(S(=O)(=O)n2cc3c4c2C(=O)C(NCc2ccccc2)=CC4=NCC3)cc1` [Compound C11], in the experiment with SCC13 cells [1], the concentration for half-maximal inhibition (IC50) is 510 ± 30 nM and the concentration for an effect of 90% (IC90) came out at 920 ± 60 nM. Moreover, in the experiment with HaCaT cells, the IC50 amounted to 480 ± 10 nM and the 90% effect concentration (IC90) is 870 ± 30 nM.

Consider `O=C1C(NCCc2ccc3c(c2)OCO3)=CC2=NCCc3c[nH]c1c32` [Compound C238], for which the 50% inhibitory concentration (IC50) in the experiment on SCC13 cells [1] was found to be 820 ± 20 nM; in the experiment with HaCaT cells, 2350 ± 210 nM. The IC90 was found to be 1480 ± 40 nM with SCC13 cells [1] and 4230 ± 360 nM with HaCaT cells.

On to `Cc1ccc(S(=O)(=O)n2cc3c4c2C(=O)C(NCCc2ccc5c(c2)OCO5)=CC4=NCC3)cc1` [Compound C15], for which, in the experiment on SCC13 cells [1], the IC50 is 5310 ± 190 nM and the IC90 is 9560 ± 350 nM. In addition, in the experiment with HaCaT cells, the IC50 was found to be 730 ± 90 nM and the IC90 is 1320 ± 160 nM.

On to `O=C1C(NCc2cccs2)=CC2=NCCc3c[nH]c1c32` [Compound C278], for which the IC50 in the experiment on SCC13 cells [1] came to 500 ± 110 nM; in the experiment with HaCaT cells, 1150 ± 210 nM. In addition, the IC90 stood at 900 ± 210 nM in the experiment on SCC13 cells [1] and 2070 ± 370 nM with HaCaT cells. Moreover, the “selectivity for killing SCC13 cells compared to HaCaT cells” value in the experiment with SCC13 cells [1] (SCC13 vs HaCaT) is listed as “two-fold”. Also, the Percent wound closure with SCC13 cells [2] (0.5 μM) is on record as 69.06 ± 2.91%; in the experiment on SCC13 cells [2] (1.0 μM), 39.53 ± 2.17%. The “number of invasive cells” value with SCC13 cells [3] (0.5 μM) is 32.00 ± 4.24%; in the experiment on SCC13 cells [3] (1.0 μM), 19.50 ± 4.95%. Further, the “expression of PCNA” value in experiment [4] is listed as “downregulation”. Moreover, the “expression of Bcl-2 protein” value with Bcl-2 is “significantly downregulated”. Moreover, the “production of cleaved-PARP” value with cleaved-PARP is reported as “increased in a dose-dependent manner”. Further, the “expression of beclin-1” value in the experiment with beclin-1 is “increased in a dose-dependent manner”.
